A word on the inhibition: it is the relative decrease from the control value, in per cent. Usually Kd stands for the free concentration of one partner at which half of the binding sites on the other are occupied at equilibrium, for simple one-to-one binding. The low end stands for a tighter complex, the high end for a looser complex.

For one compound, inhibition and Kd results are on record in article PMC4376699, “Characterization of Binding and Inhibitory Properties of TAK-063, a Novel Phosphodiesterase 10A Inhibitor” (PLoS ONE, 2015).

Experiment [1] has as its target T1, Phosphodiesterase PDE10A1 (Homo sapiens, UniProt Q9Y233).
T1 construct: gene PDE10A; PDE10A1
Nature of the experiment: enzyme inhibition panel at […] (Ricerca Biosciences), […] inhibition. The format is biochemical.

In experiment [2] the target is T2, Phosphodiesterase 10A (PDE10A) (Rattus norvegicus, UniProt Q9QYJ6).
T2 construct: native PDE10A in rat brain sections
T2 sequence (Q9QYJ6 1-794): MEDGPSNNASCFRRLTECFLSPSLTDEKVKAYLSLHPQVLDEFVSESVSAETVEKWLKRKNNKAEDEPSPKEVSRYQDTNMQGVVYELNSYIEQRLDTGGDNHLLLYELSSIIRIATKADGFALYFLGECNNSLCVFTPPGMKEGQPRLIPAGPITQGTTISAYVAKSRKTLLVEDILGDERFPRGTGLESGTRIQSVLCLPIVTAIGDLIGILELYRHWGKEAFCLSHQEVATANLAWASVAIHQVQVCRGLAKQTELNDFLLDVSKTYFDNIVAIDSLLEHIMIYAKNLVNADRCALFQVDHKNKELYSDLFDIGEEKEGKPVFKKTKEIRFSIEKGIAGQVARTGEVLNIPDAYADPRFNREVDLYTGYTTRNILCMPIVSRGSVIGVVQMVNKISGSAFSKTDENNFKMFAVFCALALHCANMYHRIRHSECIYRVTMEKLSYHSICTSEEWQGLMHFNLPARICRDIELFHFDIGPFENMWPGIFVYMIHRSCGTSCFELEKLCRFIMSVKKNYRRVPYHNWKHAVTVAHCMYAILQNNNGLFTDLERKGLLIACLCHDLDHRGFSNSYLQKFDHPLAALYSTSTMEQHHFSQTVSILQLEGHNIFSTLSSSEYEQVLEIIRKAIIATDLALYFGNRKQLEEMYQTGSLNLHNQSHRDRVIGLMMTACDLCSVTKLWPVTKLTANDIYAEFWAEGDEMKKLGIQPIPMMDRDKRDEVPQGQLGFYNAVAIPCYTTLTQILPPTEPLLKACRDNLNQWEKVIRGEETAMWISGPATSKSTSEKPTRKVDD
Nature of the experiment: [3H]TAK-063 saturation binding on rat brain sections (autoradiography); Kd […] NAc shell, […] CPu.

T1 sequence (Q9Y233 1-779 isoform Q9Y233-1): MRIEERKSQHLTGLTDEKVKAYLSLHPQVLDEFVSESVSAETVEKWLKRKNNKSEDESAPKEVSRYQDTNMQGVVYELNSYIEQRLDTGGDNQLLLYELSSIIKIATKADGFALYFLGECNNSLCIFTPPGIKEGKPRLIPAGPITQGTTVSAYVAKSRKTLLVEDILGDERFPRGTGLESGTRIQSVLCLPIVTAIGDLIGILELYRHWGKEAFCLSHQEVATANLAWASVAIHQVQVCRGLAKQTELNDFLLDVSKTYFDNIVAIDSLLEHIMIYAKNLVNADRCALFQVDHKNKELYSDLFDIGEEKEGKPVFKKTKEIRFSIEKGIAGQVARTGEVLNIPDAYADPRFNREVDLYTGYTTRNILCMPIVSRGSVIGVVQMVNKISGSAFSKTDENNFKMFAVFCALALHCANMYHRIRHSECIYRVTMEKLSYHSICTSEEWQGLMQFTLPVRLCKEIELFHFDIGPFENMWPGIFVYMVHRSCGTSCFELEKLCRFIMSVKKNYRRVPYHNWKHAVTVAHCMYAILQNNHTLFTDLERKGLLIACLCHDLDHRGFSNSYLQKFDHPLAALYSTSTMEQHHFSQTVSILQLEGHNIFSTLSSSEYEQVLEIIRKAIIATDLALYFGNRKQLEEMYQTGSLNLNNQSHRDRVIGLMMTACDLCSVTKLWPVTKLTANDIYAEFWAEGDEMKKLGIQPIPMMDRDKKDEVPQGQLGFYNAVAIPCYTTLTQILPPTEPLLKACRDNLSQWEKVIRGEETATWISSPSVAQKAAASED

For the compound `COc1cn(-c2ccc(-n3cccn3)cc2F)nc(-c2ccnn2-c2ccccc2)c1=O` [TAK-063, 1-[2-fluoro-4-(1H-pyrazol-1-yl)phenyl]-5-methoxy-3-(1-phenyl-1H-pyrazol-5-yl)-pyridazin-4(1H)-one], in experiment [1], the inhibition at 10 µM was found to be 101%. The compound also registered a Kd in experiment [2] of 2.6 nM.
